Reference: US20080260753A1, “Mouse Models of Crohn's Disease and a Method to Develop Specific Therapeutics” (priority 2004, published 2008)

Experiments:
[1] = test system: BMDMs from WT and Nod2^2939iC (m/m) mice; assay: Cytokine secretion by stimulated BMDMs (ELISA, immunoblotting); type: cell-based, mouse
Experimental: Macrophage culture and treatment. BMDMs were cultured as described (Park et al., Science 297: 2048, 2002). Confluent cultures were treated with different bacterial components including MDP (Bachem), synthetic peptidoglycan-Pam3Cys (InvivoGen), natural gram positive peptidoglycan (from S. aureus, Sigma), LPS (from E. coli, Sigma), and CpG-DNA (TIB MOLBIOL). At the indicated time points the cells or culture supernatants were collected and used to prepare cytoplasmic and nuclear protein extracts or total cellular RNA.
Gene expression analyses. Protein lysates were prepared from tissues and cultured macrophages, separated by SDS-polyacrylamide gel electrophoresis, transferred to Immobilon membranes (Millipore) and analyzed by immunoblotting. Total cellular RNA was extracted using TRIZOL (Invitrogen). cDNA was generated using SuperScript II (Invitrogen) and the amounts of the different mRNAs were measured by real-time PCR using GAPDH mRNA for normalization. Primer sequences are available upon request. Cytokine levels were measured using enzyme linked immunoadsorbent assays (ELISA).

WT and Nod2^2939iC mice = assay: DSS colitis with IL-1RA or antibiotic treatment, body weight, survival and histological scoring; type: in vivo; details: for mortality: 3% DSS for 6 days, by 10 days after DSS exposure
Experimental: DSS colitis, IL-1RA treatment and histological scoring. Mice (8-12 weeks old) were given DSS (ICN Biomedicals Inc.) in the drinking water for 6 days as indicated and placed on regular water thereafter. When indicated, mice were also treated with neomycin sulfate (1.5 g/L) and metronidazole (1.5 g/L) (both from Sigma) in the drinking water or injected i.p. with either IL-1RA (Kineret®, Amgen Inc.) (100 mg/kg) in PBS or PBS alone once daily throughout the experiment. […] Histological scoring of fixed (10% formaldehyde) and sectioned (paraffin embedded) tissue was performed in a blinded manner. The scores were: 0=normal, 1=moderate mucosal inflammation without ulcer, 2=severe mucosal inflammation with ulcer (<1 mm) or no ulcer, 3=severe mucosal inflammation with ulcer (1-3 mm), 4=severe mucosal inflammation with ulcer (>3 mm).

CC(=O)N[C@H]1C(O)O[C@H](CO)[C@@H](O)[C@@H]1O[C@H](C)C(=O)N[C@@H](C)C(=O)N[C@H](CCC(=O)O)C(N)=O (mixture of isomers) [MDP, muramyl dipeptide]
IL-6 secretion ([1]; BMDMs stimulated with MDP): neither IL-6 nor TNFα were secreted
release of mature IL-1β ([1]; Nod2^2939iC macrophages, MDP 1 μg/ml, 24 hrs): stimulated release of mature IL-1β

IL-1RA: IL-1 receptor antagonist (IL-1RA) (Kineret®, Amgen Inc.)
Average body weight loss (WT and Nod2^2939iC mice; 3% DSS in drinking water for 6 days, IL-1RA 100 mg/kg i.p. once daily from the start of DSS exposure, WT and Nod2^2939iC mice): improved
differences in weight loss and inflammatory score between the genotypes (WT and Nod2^2939iC mice; 3% DSS plus IL-1RA 100 mg/kg/day, WT vs Nod2^2939iC mice): abolished
histological score (WT and Nod2^2939iC mice; 11 days after initiation of 3% DSS, IL-1RA 100 mg/kg/day i.p., WT and Nod2^2939iC mice): improved
colon histology: inflammation and ulceration compared to DSS alone (WT and Nod2^2939iC mice; 11 days after initiation of DSS plus IL-1RA (100 mg/kg/day), WT and Nod2^2939iC mice): decreased inflammation and ulceration

dextran sodium sulfate [DSS]
mortality (WT and Nod2^2939iC mice; Nod2^2939iC mice (n=16)): 37.5%
mortality (WT and Nod2^2939iC mice; WT mice (n=19)): 0%
time to death after DSS administration (WT and Nod2^2939iC mice; 6% DSS without oral antibiotics, WT and Nod2^2939iC mice): ≤ 9 days
